# Test system: lipase from porcine pancreas
# Experiment: degradation of arginine esters by lipase (pH-stat titration)
# Assay type: in vitro ADME
# Conditions: within 3 h, 1 mM ester, pH 6.8, 37 °C
# Description: Lipase-catalyzed hydrolytic degradation of Arg-OL and Arg-DT esters was carried out using a previously described experimental setup.[16] Digestion medium consisted of 2 mM Tris buffer with 5 mM CaCl2 and 150 mM NaCl. The medium pH was adjusted to 6.8. Lipase solution was freshly prepared before the experiment as follows: 0.5 g of lipase was mixed for 10 min in 10 mL of digestion medium, followed by centrifugation at 12 000 rpm and 4 °C for 15 min. The supernatant was collected for the degradation test and ice-stored until use. For the degradation test, solutions of Arg-OL and Arg-DT were prepared in the concentration of 1 mM in digestion buffer, and the pH was adjusted to 6.8 using 0.5 M NaOH. Thereafter, 2 mL of lipase solution was added to 18 mL of the Arg-surfactant solution to initiate ester degradation under continuous stirring at 37 °C. The ester hydrolysis was reflected by monitoring the drop in pH due to the release of arginine and titrated to keep the pH at 6.8 with the addition of 0.5 M NaOH. The experiment was continued for 3 h. Back-titration was also performed at the end of the experiment by raising the pH to 9, and additional consumption of the NaOH volume reflected the nonionized form of an amino acid. […]
row,Structure (SMILES),percentage of arginine ester cleaved by lipase [%]
1,"CCCCCCCCCCCCC(CCCCCCCCCC)COC(=O)[C@@H](N)CCCNC(=N)N.O=C(O)C(F)(F)F (some centres unmarked) [Arg-DT, 2-Decyltetradecyl Argininate Trifluoroacetate]",85
2,"CCCCCCCCC=CCCCCCCCCOC(=O)[C@@H](N)CCCNC(=N)N.O=C(O)C(F)(F)F [Arg-OL, Octadec-9-en-1-yl Argininate Trifluoroacetate]",93

# Reference: article PMC7467771, “Lipophilic Arginine Esters: The Gateway to Preservatives without Side Effects” (Molecular Pharmaceutics, 2020)
